Laboratory results: patent publication US12059403B2, “Use of SWELL1 inhibitors and modulators to treat type 2 diabetes and obesity” (UNIVERSITY OF IOWA RESEARCH FOUNDATION, priority 2016, dated 2024)
Positions count from the first letter of the chain named.

Key:
[1] = test system: WT primary murine β-cells; test: Glucose-stimulated Ca2+ signaling (GCaMP6s imaging) in WT primary murine β-cells; format: cell-based; conditions: 10 μM
Excerpt: SWELL1-dependent Ca^2+ signaling was then examined in primary mouse and human β-cells. Adenoviruses expressing the genetically encoded Ca^2+-sensor GCaMP6s under control of the rat insulin promoter 1 (RIP1), either alone (Ad-RIP1-GCaMP6s), or in combination with Cre-recombinase (Ad-RIP1-Cre-P2A-GCaMP6s), were generated. This approach provides a robust β-cell restricted fluorescent Ca^2+ sensor while simultaneously allowing for β-cell targeted Cre-mediated SWELL1 deletion in cultured SWELL1^fl/fl islets isolated from SWELL1^fl/fl mice. […] A similar approach was used in human islets, whereby islets were co-transduced with Ad-RIP1-GCaMP6s and either Ad-U6-shSWELL1-mCherry or Ad-U6-shSCR-mCherry. Upon islet dissociation, only double-labelled GCaMP6s+/mCherry+ primary human β-cells were imaged. As with mouse primary β-cells, robust glucose-stimulated Ca^2+ transients in Ad-shSCR treated human primary β-cells were observe, and this is markedly abograted upon Ad-shSWELL1-mediated SWELL1 knock-down. […] In pancreatic β-cells, physiological intracellular Cl^− concentration is maintained at 34-36 mM by NKCC1 transporters to generate a depolarizing Cl^− current upon activation of a Cl^− conductance, since ECl−=˜−35 mV. […]

WT MIN6 cells = test: Glucose-stimulated intracellular Ca2+ in WT MIN6 cells; format: cell-based, mouse; conditions: 10 μM
Experimental: To determine whether SWELL1-mediated depolarizing Cl^− current is required to depolarize the β-cell membrane potential to the activation threshold of voltage-gated Ca^2+ channels (VGCC) essential for insulin granule fusion, glucose-stimulated intracellular Ca^2+ was measured in WT and SWELL1-deficient MIN6 β-cells, primary mouse and human β-cells.

[2] = biological target: T1, volume-regulated anion current (VRAC) (Mus musculus, UniProt Q80WG5); test: Patch-clamp of swell-activated current in mature murine iWAT adipocytes swelled by positive pressure; format: cell-based; conditions: positive pressure swelling, whole-cell
T1 construct: present in the murine 3T3-F442A and human adipocyte cell lines (NPAD) upon hypotonic swelling; endogenous in cells; host or cells: 3T3-F442A adipocytes
T1 sequence (Q80WG5 1-810): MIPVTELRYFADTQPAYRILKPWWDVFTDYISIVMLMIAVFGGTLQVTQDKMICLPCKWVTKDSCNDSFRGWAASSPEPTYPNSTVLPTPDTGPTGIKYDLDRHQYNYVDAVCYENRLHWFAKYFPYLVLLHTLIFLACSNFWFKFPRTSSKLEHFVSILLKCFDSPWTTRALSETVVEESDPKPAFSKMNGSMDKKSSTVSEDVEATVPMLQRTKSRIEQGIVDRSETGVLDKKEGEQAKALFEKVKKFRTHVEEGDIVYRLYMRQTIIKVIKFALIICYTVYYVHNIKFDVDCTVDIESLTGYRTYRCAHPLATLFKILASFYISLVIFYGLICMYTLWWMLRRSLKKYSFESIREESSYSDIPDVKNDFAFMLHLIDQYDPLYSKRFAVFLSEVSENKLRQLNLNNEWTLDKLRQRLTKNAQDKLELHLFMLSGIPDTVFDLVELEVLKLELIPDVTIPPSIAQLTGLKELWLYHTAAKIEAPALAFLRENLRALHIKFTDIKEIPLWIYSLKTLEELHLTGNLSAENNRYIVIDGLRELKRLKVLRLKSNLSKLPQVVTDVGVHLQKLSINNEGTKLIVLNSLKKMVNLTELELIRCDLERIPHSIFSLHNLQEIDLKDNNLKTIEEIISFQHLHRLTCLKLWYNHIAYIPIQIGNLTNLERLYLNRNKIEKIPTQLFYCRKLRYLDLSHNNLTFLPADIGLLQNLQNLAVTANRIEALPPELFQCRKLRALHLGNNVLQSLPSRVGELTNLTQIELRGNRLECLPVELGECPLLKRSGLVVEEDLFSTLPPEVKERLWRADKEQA
Experimental: To identify a putative swell-activated ionic current in adipocytes, patch-clamp recordings were performed on mature murine adipocytes freshly isolated from inguinal white adipose tissue (iWAT). Ionic currents were measured in voltage-clamp mode while simultaneously swelling the adipocyte by applying positive pressure (˜3-5 mmHg, whole-cell configuration) via the patch-pipette. After a few minutes, activation of a large swell-activated current was observed. This current is outward rectifying, characterized by larger outward current at positive voltages compared to inward currents at negative voltages during sequential voltage ramps or voltage steps, with the current amplitude proportional to the extent of adipocyte swelling. This current reverses direction at −11.7±2.5 mV, which is near the reversal potential of chloride under these conditions (−11.5 mV, junction potential corrected). […] Finally, this swell-activated adipocyte current is blocked by 4-[(2-Butyl-6,7-dichloro-2-cyclopentyl-2,3-dihydro-1-oxo-1H-inden-5-yl)oxy]butanoic acid (DCPIB), a selective blocker of the volume-regulated anion current (VRAC) or volume-sensitive outwardly rectifying chloride current (VSOR).

[3] = biological target: T1, volume-regulated anion current (VRAC); test: Patch-clamp of swell-activated current in 3T3-F442A adipocytes upon hypotonic swelling; format: cell-based; conditions: murine 3T3-F442A adipocytes
SWELL1 = SWELL1 protein expression in cultured adipocytes; format: cell-based
[4] = test system: mice raised on a high-fat diet; test: Glucose tolerance in mice raised on a high-fat diet; format: in vivo
β-cell VRAC [5] = biological target: T2, β-cell VRAC (Mus musculus, UniProt Q80WG5); test: Perforated-patch clamp of glucose-activated VRAC in primary mouse β-cells; format: cell-based; conditions: 35-37° C.
T2 construct: endogenous in cells; host or cells: MIN6 mouse insulinoma cells
T2 sequence (Q80WG5 1-810): T1 sequence (Q80WG5 1-810)
Experimental: (§1) Having established that SWELL1 is required for this previously enigmatic depolarizing swell-activated Cl^− current in MIN6 cells, and in both mouse and human primary β-cells, whether physiologic glucose-mediated β-cell swelling is sufficient to activate SWELL1-mediated VRAC was investigated. First, β-cell size was measured by light microscopy in WT and SWELL1-deficient primary murine and human β-cells in response to glucose-stimulated swelling (at 35-37° C.). WT murine β-cells swell 6.8±1.6% in cross-sectional area upon perfusion of 16.7 mM glucose (from 1 mM basal glucose) and reach a maximum size at 12 minutes post glucose-stimulation, followed by a reduction in β-cell size, consistent with regulatory volume decrease (RVD). […] WT human β-cells show a similar trend, swelling 8.6±3.5%, followed by RVD. […] Next, the perforated-patch clamp technique was applied to primary β-cells at 35-37° C. in order to measure currents under the same physiological conditions that induce glucose-mediated β-cell swelling. β-cell VRAC activates in response to physiological increases in glucose in MIN6 cells and in both mouse and human β-cells, and is blocked by the selective VRAC inhibitor, DCPIB. […]

β-cell VRAC [6] = biological target: T3, β-cell VRAC (Homo sapiens, UniProt Q8IWT6); test: Perforated-patch clamp of glucose-activated VRAC in primary human β-cells; format: cell-based; conditions: 35-37° C.
T3 construct: from tissue; host or cells: primary β-cells from human pancreatic islets
T3 sequence (Q8IWT6 1-810): T1 sequence (Q80WG5 1-810) with S75P, S76G, V86I, A276I, V591A, V715I, A722T, S792N
Experimental: as §1

[7] = biological target: T4, volume-regulated anion current (VRAC) (Homo sapiens, UniProt Q8IWT6); test: Patch-clamp of swell-activated current in human adipocyte cell line (NPAD) upon hypotonic swelling; format: cell-based
T4 construct: present in the murine 3T3-F442A and human adipocyte cell lines (NPAD) upon hypotonic swelling; endogenous in cells; host or cells: human adipocyte cell line (NPAD)
T4 sequence (Q8IWT6 1-810): T1 sequence (Q80WG5 1-810) with S75P, S76G, V86I, A276I, V591A, V715I, A722T, S792N

β-cell VRAC [8] = biological target: T2, β-cell VRAC; test: Perforated-patch clamp of glucose-activated VRAC in MIN6 cells; format: cell-based; conditions: 35-37° C.
Experimental: as §1

SMILES	glucose-stimulated Ca2+ signaling [1]	glucose-stimulated Ca2+ signaling (WT MIN6 cells)	swell-activated adipocyte current [2]	swell-activated current [3]	SWELL1 protein expression (SWELL1)	glucose tolerance associated with obesity [4]	β-cell VRAC activated by physiological increases in glucose (β-cell VRAC [5])	β-cell VRAC activated by physiological increases in glucose (β-cell VRAC [6])	swell-activated current [7]	β-cell VRAC activated by physiological increases in glucose (β-cell VRAC [8])
CCCCNc1cc(C(=O)O)cc(S(N)(=O)=O)c1Oc1ccccc1 [bumetanide]	fully inhibits	fully inhibits	–	–	–	–	–	–	–	–
CCCCC1(C2CCCC2)Cc2cc(OCCCC(=O)O)c(Cl)c(Cl)c2C1=O (stereo not shown) [DCPIB, 4-[(2-Butyl-6,7-dichloro-2-cyclopentyl-2,3-dihydro-1-oxo-1H-inden-5-yl)oxy]butanoic acid]	–	–	blocked	fully inhibited	induced a compensatory increase	normalized	blocked	blocked	fully inhibited	blocked
